Experiment [1] deals with hKv1.5 (Homo sapiens, UniProt P22460). As to the kind of experiment: Kv1.5 Autopatch Electrophysiology (whole cell patch-clamp). It counts as cell-based. The conditions noted are these: compound 1 μM, step to 0 mV for 1000 ms, total charge, room temperature (22-24° C.); for inhibition at 1 µM: read-out: hKv1.5 % inh. Here is the method:
The external bathing solution contained (in mM): 150 NaCl, 10 KCl, […], 3 MgCl2, 1 CaCl2, 10 HEPES, pH 7.4. Patch pipettes were filled with an electrode solution of composition (in mM): 160 KCl, 0.5 MgCl2, 10 HEPES, 1 EGTA, pH 7.4 with KOH.
Compounds were dissolved in DMSO (100%) and made up in the external bather at a concentration of 1 μM. All experiments were conducted at room temperature (22-24° C.).
A cell suspension (10 ml), with a density of 100,000 cells/ml, was aliquoted into a 15 ml centrifuge tube and transferred to an incubator (37° C., 5% CO2) for approximately one hour before use. Following 60 min incubation, a tube was taken and centrifuged at 1000 rpm for 4 mins at room temperature. 9.5 ml supernatant was thence discarded, leaving a cell pellet at the bottom of the tube. The pellet was then resuspended using 100 μl of cold (4° C.), filtered (0.22 μm), 0.2% BSA/bather solution (0.02 g BSA/10 ml bather). The bottom of the tube was manually agitated gently until the solution became cloudy with cells. The 100 μl cell resuspension solution was then stored on the bench at 4° C. (using a Peltier-based temperature control device) until used.
A length of capillary glass (1B150E-4, WPI) was dipped into the cell suspension solution, such that ˜3 cm column of fluid was taken up by capillary action. A Ag/AgCl wire was dropped into the non-dipped end of the capillary also. The outside of the solution-filled end of the capillary was then dried and the capillary was loaded into the AutoPatch™
(§1) Borosilicate glass patch pipettes (from 1.5 mm OD, thin-walled filamented, GC150-TF capillary glass, Harvard) were pulled using a DMZ pipette puller (Zeitz Instruments), and were back-filled using the internal pipette solution, being careful that no bubbles remain at the tip or in the body of the pipette. Patch pipettes typically had resistances of 2.3-3.5 MΩ. Once filled, the pipette tip and a proportion of the shaft (˜15 mm) were dipped into Sigmacote (Sigma). The recording pipette was then loaded into the AutoPatch™. Automated patch-clamping was initiated by the operator, but thereafter AutoPatch.exe continued the experiment providing that pre-set conditions and criteria were satisfied.
Whole cell patch-clamp recordings were made using the AutoPatch™ rig, which incorporated an EPC9 amplifier (HEKA, Germany) under control of Pulse software (v8.54, HEKA, Germany), a motion controller with 2 translators (Newport, UK), valve controller (VF1) and a c-level suction device all at room temperature (22-24° C.). This equipment was completely under the control of AutoPatch.exe and operator intervention was only made when there was a requirement to refill the drug reservoirs or to prevent the loss of a cell due to a technical error. Cells with an Rseries greater than 18 MΩ were discounted from the experiment.
Qualification stages prior to perfusion and drug application ensured that the observed current met the criteria for the experiment. Only those cells with an IK>500 pA were used for experiments. Cells were continuously perfused with external solution at a flow rate of 1.8-2 ml/minute. […] Online analysis of the hKv1.5 current during the application of compounds was performed by the AutoPatch™ software. Voltage-step protocols and analysis of data was performed as described for conventional electrophysiology.
Electrophysiology voltage-step protocols and analysis of data was performed as follows. Data was sampled at 5 kHz, and filtered with a −3 dB bandwidth of 2.5 kHz. Cells were held at a voltage of −80 mV. Currents were evoked to a voltage step for 1000 ms in duration at 0 mV every 5 s. Currents were analysed using Pulsefit software (v8.54, HEKA, Germany), with the total charge measured during the whole of the voltage step. All other plots were produced using Igor Pro (WaveMetrics).

The target of experiment [2] is T1, human Kv1.3 (Homo sapiens, UniProt P22001).
T1 construct: expressed in transfected cells; host or cells: stably transfected cells grown in medium for CHO cells
T1 sequence (P22001 whole entry): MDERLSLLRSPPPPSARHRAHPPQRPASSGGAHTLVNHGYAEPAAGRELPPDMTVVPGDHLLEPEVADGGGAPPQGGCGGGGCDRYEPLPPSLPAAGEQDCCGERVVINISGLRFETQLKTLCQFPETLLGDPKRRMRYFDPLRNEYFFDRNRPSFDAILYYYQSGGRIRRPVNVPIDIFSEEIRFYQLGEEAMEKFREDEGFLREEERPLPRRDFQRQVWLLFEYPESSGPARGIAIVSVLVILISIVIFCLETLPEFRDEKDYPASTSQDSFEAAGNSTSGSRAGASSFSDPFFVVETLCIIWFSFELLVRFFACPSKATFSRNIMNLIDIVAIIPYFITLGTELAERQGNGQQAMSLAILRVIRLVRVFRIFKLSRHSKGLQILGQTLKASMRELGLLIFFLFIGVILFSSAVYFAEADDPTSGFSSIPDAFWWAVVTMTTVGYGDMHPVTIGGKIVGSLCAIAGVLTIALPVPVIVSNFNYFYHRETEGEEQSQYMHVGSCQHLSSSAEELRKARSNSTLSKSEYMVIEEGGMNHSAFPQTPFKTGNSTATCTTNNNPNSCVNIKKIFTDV
As to the kind of experiment: Kv1.3 Autopatch Electrophysiology (whole cell patch-clamp, stably transfected CHO cells). Type of experiment: cell-based. Particulars: compound 1 μM, step to +30 mV for 500 ms, inhibition of total charge relative to control, room temperature. Here is the method: Cells stably transfected with cDNA for human Kv1.3 (in pcDNA3.1) were grown in Ex-cell 302 serum-free medium for CHO cells, supplemented with 10 μl/ml [100×] glutamine, 500 μg/ml G418 ([…]), and 1% HT supplement (50×, hypoxanthine and thymidine). Compounds were tested on these cells using the AutoPatch technology in whole cell mode.
The external bathing solution contained (in mM): 150 NaCl, 10 KCl, 1 MgCl2, 3 CaCl2, 10 HEPES, pH 7.4 with NaOH. Patch pipettes were filled with an electrode solution of composition (in mM): 100 K-Gluconate, 20 KCl, 1 MgCl2, 1 CaCl2, 10 HEPES, 11 EGTA, 5 ATP-Na2, 2 Glutathione pH 7.2 with KOH.
Compounds were dissolved in DMSO (100%) and made up in the external bather at a concentration of 1 μM immediately prior to use. All experiments were conducted at room temperature.
A cell suspension (10 ml), with a density of 6×10^6 cells, was aliquoted into a 15 ml centrifuge tube and stored at 4° C. before use. Prior to use a tube was taken and centrifuged at 1000 rpm for 4 mins at room temperature. The supernatant was then discarded, leaving a cell pellet at the bottom of the tube. The pellet was then resuspended using 1 ml of cold (4° C.), filtered (0.22 μm), 0.05% BSA/bather solution (0.05 g BSA/100 ml bather). The bottom of the tube was manually agitated followed by gentle tituration. The cell suspension was then placed in the AutoPatch™ temperature controlled cell-hotel at 14° C. and regularly titurated.
as §1, with “A length of Teflon capillary tubing was dipped into the cell suspension solution, and a column of fluid was taken up by negative pressure. The column of fluid was in electrically connectivity with a Ag/AgCl reference electrode. Borosilicate” for “Borosilicate”, “remained” for “remain”, “2.5-3.5” for “2.3-3.5”, “pipettes were placed in a multiwell array and mounted on” for “pipette was then loaded into”, “AutoPatch™ machine.” for “AutoPatch™.”, “patch-clamping and drug-application” for “patch-clamping”
Whole cell patch-clamp recordings were made using the AutoPatch™ rig, which incorporated an EPC9 or EPC10 amplifier (HEKA, Germany) under control of Pulse software (v8.54 or v8.76, HEKA, Germany), a cell applicator, automated drug application system (DAS), valve controller (VF1) and a suction device all at room temperature. This equipment was completely under the control of AutoPatch.exe and operator intervention was only made when there was a requirement to refill the bather reservoirs or to prevent the loss of a cell due to a technical error.
Qualification stages prior to perfusion and drug application ensured that the observed current met the criteria for the experiment. Cells were continuously perfused with external solution at a flow rate of ˜2 ml/minute.
Electrophysiology voltage-step protocols and analysis of data was performed as follows. Data were sampled at 5 kHz, and filtered with a −3 dB bandwidth of 2.5 kHz. Cells were held at a voltage of −80 mV. Currents were evoked by a voltage step to +30 mV for 500 ms in duration applied every 15 s. Online analysis of the hKv1.3 current during the application of compounds was performed by the Pulse (v8.54 or v8.76, HEKA, Germany), Excel (Microsoft, USA) and AutoPatch™ software, with the total charge measured during the whole of voltage step Inhibition of charge movement in the presence of drug was calculated relative to control.

Chain of hKv1.5 (P22460 whole entry): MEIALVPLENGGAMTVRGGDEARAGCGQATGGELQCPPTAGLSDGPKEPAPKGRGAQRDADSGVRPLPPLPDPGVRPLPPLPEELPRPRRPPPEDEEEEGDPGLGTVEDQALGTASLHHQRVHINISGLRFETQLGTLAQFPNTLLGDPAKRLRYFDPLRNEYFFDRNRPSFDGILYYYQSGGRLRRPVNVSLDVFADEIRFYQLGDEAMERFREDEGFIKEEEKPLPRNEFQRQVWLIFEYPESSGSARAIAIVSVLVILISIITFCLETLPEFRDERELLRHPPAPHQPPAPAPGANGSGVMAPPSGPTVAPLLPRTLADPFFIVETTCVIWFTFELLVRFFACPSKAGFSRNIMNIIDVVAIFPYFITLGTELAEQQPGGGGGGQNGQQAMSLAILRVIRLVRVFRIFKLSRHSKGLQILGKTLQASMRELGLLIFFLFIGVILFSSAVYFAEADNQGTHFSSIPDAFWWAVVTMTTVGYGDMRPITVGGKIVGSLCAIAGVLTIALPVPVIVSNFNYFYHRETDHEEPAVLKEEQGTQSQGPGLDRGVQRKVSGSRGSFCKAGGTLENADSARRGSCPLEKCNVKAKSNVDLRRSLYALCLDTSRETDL

`CN1CCOc2cc(S(=O)(=O)N(Cc3ccccc3)c3cccc(N4CCOCC4)c3)ccc21` [Example 21, 4-Methyl-3,4-dihydro-2H-benzo[1,4]oxazine-7-sulfonic acid benzyl-(3-morpholin-4-yl-phenyl)-amide]: the inhibition at 1 µM in experiment [1] is 72%.

Turning to `Cn1cc(S(=O)(=O)N(Cc2ccc(Cl)cc2)c2cccc(N3CCOCC3)c2)cn1` [Example 33, 1-Methyl-1H-pyrazole-4-sulfonic acid (4-chloro-benzyl)-(3-morpholin-4-yl-phenyl)-amide], the inhibition at 1 µM in experiment [1] turned out to be 58%.

Turning to “3-Oxo-3,4-dihydro-2H-benzo[1,4]oxazine-6-sulfonic acid (4-chloro-benzyl)-[3-(2-oxo-pyrrolidin-1-yl)-phenyl]-amide [Example 29]”, the hKv1.5 % inh. in experiment [1] is reported as 72%.

Take `Cc1nc(S(=O)(=O)N(Cc2ccc(Cl)cc2)c2cccc(N3CCCC3=O)c2)cn1C` [Example 25, 1,2-Dimethyl-1H-imidazole-4-sulfonic acid (4-chloro-benzyl)-[3-(2-oxo-pyrrolidin-1-yl)-phenyl]-amide]: the inhibition at 1 µM in experiment [1] came to 39%.

For the compound `CN1CCOc2cc(S(=O)(=O)N(Cc3ccc(Cl)cc3)c3cccc(N4CCOCC4)c3)ccc21` [Example 32, 4-Methyl-3,4-dihydro-2H-benzo[1,4]oxazine-7-sulfonic acid (4-chloro-benzyl)-(3-morpholin-4-yl-phenyl)-amide], the inhibition at 1 µM in experiment [1] came to 64%.

For the compound “2-Methyl-2H-pyrazole-3-sulfonic acid (4-chloro-benzyl)-[3-(2-oxo-pyrrolidin-1-yl)-phenyl]-amide [Example 26]”, the hKv1.5 % inh. in experiment [1] came out at 43%.

“1-Methyl-1H-pyrazole-3-sulfonic acid (4-chloro-benzyl)-[4-fluoro-3-(2-oxo-pyrrolidin-1-yl)-phenyl]-amide [Example 37]” showed a hKv1.3 % inh. in experiment [2] of 53%.

For the compound “Pyridine-3-sulfonic acid (4-chloro-benzyl)-(3-morpholin-4-yl-phenyl)-amide [Example 35]”, in experiment [1], the hKv1.5 % inh. is given as 84%.

In experiment [1], “1-Methyl-1H-pyrazole-4-sulfonic acid benzyl-[3-(2-oxo-pyrrolidin-1-yl)-phenyl]-amide [Example 24]” had a hKv1.5 % inh. of 41%.

Take `O=C1COc2ccc(S(=O)(=O)N(Cc3ccccc3)c3cccc(N4CCCC4=O)c3)cc2N1` [Example 17, 3-Oxo-3,4-dihydro-2H-benzo[1,4]oxazine-6-sulfonic acid benzyl-[3-(2-oxo-pyrrolidin-1-yl)-phenyl]-amide]: in experiment [1], the inhibition at 1 µM was determined as 45%.

For the compound `Cn1ccc(S(=O)(=O)N(Cc2ccccc2)c2cccc(N3CCNC3=O)c2)n1` [Example 43, 1-Methyl-1H-pyrazole-3-sulfonic acid benzyl-[3-(2-oxo-imidazolidin-1-yl)-phenyl]-amide], in experiment [2] (CHO, read-out: hKv1.3 % inh.), the inhibition at 1 µM was determined as 72%.

Regarding “N-Benzyl-3-cyano-N-[3-(2-oxo-pyrrolidin-1-yl)-phenyl]-benzenesulfonamide [Example 22]”, the hKv1.5 % inh. in experiment [1] amounted to 82%.

For “1-Methyl-1H-pyrazole-3-sulfonic acid benzyl-[3-(2-oxo-pyrrolidin-1-yl)-phenyl]-amide [Example 39]”, the hKv1.3 % inh. in experiment [2] was 74%.

In experiment [1], “N-(4-Chloro-benzyl)-3-cyano-N-(3-morpholin-4-yl-phenyl)-benzenesulfonamide [Example 30]” gave a hKv1.5 % inh. of 97%.

Consider `Cn1nccc1S(=O)(=O)N(Cc1ccc(Cl)cc1)c1cccc(N2CCOCC2)c1` [Example 31, 2-Methyl-2H-pyrazole-3-sulfonic acid (4-chloro-benzyl)-(3-morpholin-4-yl-phenyl)-amide], for which the inhibition at 1 µM in experiment [1] is 47%.

`Cn1cc(S(=O)(=O)N(Cc2ccc(Cl)cc2)c2cccc(N3CCCC3=O)c2)cn1` [Example 28, 1-Methyl-1H-pyrazole-4-sulfonic acid (4-chloro-benzyl)-[3-(2-oxo-pyrrolidin-1-yl)-phenyl]-amide]: the inhibition at 1 µM in experiment [1] was found to be 49%.

`CN1CCOc2cc(S(=O)(=O)N(Cc3ccc(Cl)cc3)c3cccc(N4CCCC4=O)c3)ccc21` [Example 27, 4-Methyl-3,4-dihydro-2H-benzo[1,4]oxazine-7-sulfonic acid (4-chloro-benzyl)-[3-(2-oxo-pyrrolidin-1-yl)-phenyl]-amide]: the inhibition at 1 µM in experiment [1] came out at 84%.

In the case of `N#Cc1cccc(S(=O)(=O)N(Cc2ccccc2)c2cccc(N3CCOCC3)c2)c1` [Example 20, N-Benzyl-3-cyano-N-(3-morpholin-4-yl-phenyl)-benzenesulfonamide], the inhibition at 1 µM in experiment [1] is 90%.

As for `O=C1COc2ccc(S(=O)(=O)N(Cc3ccc(Cl)cc3)c3cccc(N4CCOCC4)c3)cc2N1` [Example 34, 3-Oxo-3,4-dihydro-2H-benzo[1,4]oxazine-6-sulfonic acid (4-chloro-benzyl)-(3-morpholin-4-yl-phenyl)-amide], in experiment [1], the inhibition at 1 µM is 68%.
